This note sets out measurements from a melting point compilation (Tetko et al.; mined from patent text by program, amines drawn as free bases though some values may be those of a salt).

Broadly, the melting point is the temperature of the solid-liquid transition. In turn, `O=C(NNC(=O)c1ncnc2[nH]ccc12)OCc1ccccc1` had a melting point of 187 to 188 °C.
Consider `Cn1c(=O)c2c(ncn2CCCN2CC=C(c3c[nH]c4ccc(Br)cc34)CC2)n(C)c1=O`, for which the melting point was 195 °C.
Then `O=C1NC(=O)C(Cc2ccc(OCCn3ccc4cccnc43)cc2)S1` (stereo unspecified), with 200 to 202 °C; and `O=c1c2c(Cc3ccccc3)n[nH]c2c2cccnc2n1-c1ccccc1`, with 305 to 308 °C.
Then `CN1CC(CNNC(=S)Nc2ccccc2)CC2c3cccc4[nH]cc(c34)CC21` (stereo unspecified), with 205 to 206 °C.
Regarding `COC(=O)CCCc1cc2nc(Cl)ccc2n1S(=O)(=O)c1ccc(N2CCOCC2)cc1`, the melting point came out at 110 °C.
As to `CC(C)c1nc2ccc(C=O)cc2nc1C(C)C`, the melting point lay within 53 to 55 °C.
Then `O=Cc1c2ccccc2cc2cc3ccccc3cc12`, with 163 to 164 °C; and `O=S1(=O)c2ccccc2N(c2ccccc2)c2ccccc21`, with 212 to 217 °C; and `Cc1cc(Oc2c(Cl)cc(C(F)(F)F)cc2Cl)nn1C(N)=O`, with 152 to 154 °C.
For the compound `Nc1nc2ccccc2c2c1ncn2CC1(O)CCC1`, the melting point was over 250 °C.
The compound `C=CC(=O)OC(C)OC(=O)c1c2ccccc2cc2ccccc12` (stereo unspecified) had a melting point of 66 to 68 °C.
Under `CC(C)(C(=O)O)S(=O)c1ccc2c(-c3ccc(Cl)cc3)noc2c1` (stereo unspecified) stands 184 to 185 °C; under `CC(C)N(CCC(=O)OC1c2ccccc2C(=O)N1c1ccc2ccc(Cl)nc2n1)C(C)C` (stereo unspecified), 135 °C; under `CCCCCCCCCCCCC(=O)NN`, 101 to 104 °C.
Under `Cc1c(-c2ccccc2)n(-c2cccc(S(C)(=O)=O)c2)c(-c2ccccc2)cc1=O` stands 246 to 248 °C.
Then `CCOC(=O)C(C)(C)c1ccc(N[C@@H](CCC(N)=O)C(=O)O)cc1`, with 147 to 148 °C; and `CC(C)n1nc(C#C[Si](C)(C)C)ccc1=O`, with 61 to 62.5 °C; and `CC1(c2c[nH]cn2)CCc2ccccc21` (stereo unspecified), with 164 to 171 °C.
The compound `CNC(=S)N(CCN1CCC(Nc2nc3ccccc3n2Cc2ccc(F)cc2)CC1)c1nccs1` had a melting point of 188 °C.
Then `CC(=O)C(C)(C(C)=O)C(C)=O`, with 33 to 35 °C; and `CCNC(=S)N(CC)c1ccc(Cl)nc1`, with 84 to 86 °C.
On to `CC(=O)NCc1ccc(/C=C/C(c2cc(Cl)cc(Cl)c2)C(F)(F)F)cc1Cl` (stereo unspecified), for which the melting point lay within 127 to 128 °C.
Under `Cn1c2cc(Cl)ccc2c2c(=O)[nH]c(-c3ccncc3)nc21` stands over 300 °C; under `CCOc1nc(=O)n(-c2cc(C(=O)OC)c(Cl)cc2F)c(=O)n1C`, 45 to 47 °C; under `CCOC(=O)C1(C(=O)OCC)OC(=O)c2ncccc2C1(O)c1ccccc1` (stereo unspecified), 146 to 147 °C.
In turn, `COC(=O)C1CC(C#N)(c2ccc(OC)c3c2OC(C)(C)O3)CCC1=O` (stereo unspecified) returned a melting point of 146 to 147 °C.
For `COC(=O)c1nc(Br)nc(Br)c1Cl`, the melting point fell in the range of 92 to 93 °C.
Then `CC(C)C(NC(=O)OCCN1CCOCC1)C(=O)NC(Cc1ccccc1)C(O)C(Cc1ccccc1)NC(=O)C(NC(=O)OCc1ccccc1)C(C)C` (stereo unspecified), with 159 to 161 °C; and `O=C1COC(CCc2ccccc2)CN1` (stereo unspecified), with 100 to 102 °C.
Then `CCC(CC)c1ccc(Cl)c2nc3n(c12)CCCC(=O)N3c1ccc(Cl)cc1Cl`, with 135 to 137 °C; and `CCCCCCCCCCCCCCCc1ccc(C(=O)O)c(O)c1`, with 96 to 97 °C.
As for `Fc1cccc(C(c2ccc3nccnc3c2)n2ccnc2)c1` (stereo unspecified), the melting point is 110 °C.
Then `COc1cc(Cl)cnc1N`, with 93 to 94 °C; and `NC(=O)OCC1COC(C(F)(F)F)(C(F)(F)F)O1` (stereo unspecified), with 52 to 54 °C; and `C#CCCCCCCCOc1cccc(C(N)=O)c1`, with 82 to 83 °C.
With `COCCNC(=O)Nc1nc2ccc(Sc3nnc4ccccn34)cc2s1`, the melting point lay in the range of 252 to 257 °C.
Turning to `O=c1ccn2c(n1)CN=C(c1ccccc1)c1cc(Cl)ccc1-2`, the melting point lay within 208 to 209 °C.
Under `CNC(=O)COC[C@@H]1CC(c2ccc(-c3ccc(N4C[C@H](Cn5ccnn5)OC4=O)cc3F)cn2)=NO1` stands 153 to 156 °C; under `OCC1Oc2ccccc2OC1CO` (stereo unspecified), 119 to 120 °C.
Then `Cc1ccc(C(=O)O)cc1Nc1nccc(-c2cccnc2)n1`, with 277 to 278 °C.
Under `COc1ccc(C2CNC(=O)C2)cc1OCC(O)CN1CCN(c2ccccc2)CC1` (stereo unspecified) stands 143 to 144 °C; under `O=CNC1=NN(c2ccc(Cl)c(Cl)c2)CC1`, 151 to 153 °C.
`C=CCC(C#N)(C#N)Cc1ccc(C(F)(F)F)cc1` displayed a melting point of 80.2 °C.
Under `Cc1cc2cc(CN3CCCCCC3)cnc2cc1NC(=O)c1ccc(-c2ccc(F)cc2)cc1F` stands 170 °C; under `CC(C)NC(=O)C1=C(C(=O)Nc2ccc(Cl)cc2F)CCCC1`, 188 to 189 °C.
Then `COc1cccc(CS(=O)c2nc3cnccc3[nH]2)c1` (stereo unspecified), with 176 to 179 °C.
Then `Nc1c(-c2ccc(-c3ccc(F)cc3F)cc2)nc2ccccc2c1C(=O)O`, with 244 to 247 °C; and `NC(=O)c1cncc(OCC(O)CO)c1` (stereo unspecified), with 197 to 199 °C.
`CCOC(=O)CCCN(C(=O)CCCN(C(=O)c1ccc(Cl)cc1)c1c(C)cccc1C)c1c(C)cccc1C` registered a melting point of 95 to 97 °C.
Under `CC(=O)c1ccc2c(c1)ncn2-c1cccc(C(=O)OC2CCN(C)CC2)c1` stands 106 to 107 °C; under `CCCc1c(OCCCOc2cc(NC(=O)c3nnn[nH]3)c(C)cc2Br)ccc(C(C)=O)c1O`, 63 to 65 °C.
Then `Cc1oc(C=Cc2ccc(Cl)cc2)nc1CC#N`, with 124 to 125 °C; and `CCC(CC)c1ccc(Cl)c2nc3n(c12)CCCCN3c1cc(C)cc2c1ncn2C`, with 259 to 260 °C; and `CC(NC(=O)Cc1cc(F)cc(F)c1)C(=O)NC1C(=O)NC(F)c2ccccc21` (stereo unspecified), with 195 to 200 °C.
Then `COc1ccc(N2C(=O)C(=C3CCCN3C)c3ccccc32)cc1Cl`, with 126 to 128 °C; and `O=c1ccn(-c2cccc(C(F)(F)F)c2)nc1-c1ccnn1-c1ccccc1`, with 156 to 157 °C.
Compound `CC(C)C(=O)NC[C@H]1CN(c2ccc3c(c2)CCCc2cnoc2-3)C(=O)O1` gave a melting point of 187 to 193 °C.
Under `O=c1ccc2c(-c3ccco3)nccc2[nH]1` stands over 300 °C; under `O=C1Nc2ccccc2C(c2ccc(Cl)cc2)CC1Br` (stereo unspecified), 194 to 198 °C.
For the compound `COc1nc(N2CC(O)C2)c(Cl)nc1NS(=O)(=O)c1cccc(Cl)c1Cl`, the melting point fell in the range of 93 to 95 °C.
Under `COc1ccc(Cn2nnc(-c3cccc(CO)c3)n2)cc1` stands 70 to 72 °C; under `CC1(C)CC(=O)C2=C(C1)NC1=C(C(=O)CC(C)(C)C1)C2c1cc(Br)cc(Br)c1`, 288 to 290 °C; under `O=[N+]([O-])c1ccc(-c2c[nH]c(Cl)n2)cc1`, 136 to 138 °C.
Under `CCCCCCCCCCCCCCCCCCNC(=O)O[C@H]1CCCO[C@H]1CO` (relative stereo) stands 85 to 86 °C.
Then `Cn1cc(C2=C(c3c4n(c5ccccc35)CCC(NC(=O)OC(C)(C)C)C4)C(=O)NC2=O)c2ccccc21` (stereo unspecified), with 153 to 155 °C; and `CCOC(=O)c1c(N2CCN(C(=O)c3cccs3)CC2)c2cccnc2n(Cc2ccccc2F)c1=O`, with 105 to 110 °C; and `COc1c2c(c(OC)c(OC)c1OC)CC(C(=O)O)(c1ccc(OCCCC(=O)O)cc1)C2`, with 148 to 150 °C.
For `N#Cc1c[nH]c(Cl)c1-c1ccccc1`, the melting point is 140 to 142 °C.
`O=C1NC(=O)c2ccc(Br)cc2/C1=C/NCCc1c[nH]c2ccccc12` registered a melting point of 278 to 280 °C.
Under `CCc1c(O)c(C(C)=O)cc2c1OC(C)(C)CC2C` (stereo unspecified) stands 104 to 106 °C; under `COc1cc(N)c(Cl)cc1C(=O)NC1CN(C)N(C)C1`, 169 to 171 °C.
In the case of `CCOC(=O)c1c(-c2ccc(F)cc2)c2ccccc2n1C`, the melting point fell in the range of 61 to 62 °C.
Then `NCCSc1ccc(CCC(=O)O)cc1`, with 90 to 110 °C; and `O=CNc1ccccc1O`, with 129 °C.
Then `CN(C)C=Nc1ccc(-n2ncnc2-c2ccccc2)cc1`, with 109 to 111 °C.
Then `CCS(=O)(=O)Nc1n[nH]c2nc(Oc3ccc(F)cc3F)ncc12`, with 226 to 227 °C.
`O=C(O)CCCc1ccc(-c2ccccc2F)cc1` yielded a melting point of 65 to 66 °C.
Under `CCN1CCc2cc(OC)c(OC)cc2C1C1CC(C(=O)N2CCN(c3ccccn3)CC2)CCC12c1cc(OC)c(OC)cc1CCN2CC` (stereo unspecified) stands 115 to 117 °C.
Then `O=C(O)Cc1cc(C(=O)Cc2c(F)cccc2Cl)ccc1O`, with 240 °C; and `CC(NC(=O)Nc1cc(Cl)ccc1CCc1cc(C(C)(C)C)c(O)c(C(C)(C)C)c1)c1ccccc1` (stereo unspecified), with 167 to 168 °C.
Under `Cc1nc2cnccc2n1-c1ccc(CO)cc1` stands 154 to 156 °C; under `CCOC(=O)c1nc2c(=O)[nH]c3cc(S(C)(=O)=O)ccc3n2c1C`, over 250 °C; under `CC(=Cc1cc(-n2[nH]c3c(c2=O)CCCC3)ccc1Cl)C(=O)O`, 278 °C.
`CCn1c(=O)c(C)cc2cnc(Nc3ccccc3)nc21` had a melting point of 178 to 180 °C.
Then `CCOc1ccccc1-c1ncc(C#N)c(=O)[nH]1`, with 186 to 187 °C; and `O=C(COc1ccc(CCC(=O)C(F)(F)F)cc1)NC(c1ccc(Cl)cc1)c1ccc(Cl)cc1`, with 145 to 146 °C.
Then `COc1cc(Nc2c(C#N)cnc3cc(-n4cccc4)c(OC)cc23)c(Cl)cc1Cl`, with 229 to 230 °C.
Then `O=C1C2C3C=CC(C3)C2C(=O)N1OS(=O)(=O)C(F)(F)F` (stereo unspecified), with 89 to 90 °C.
The compound `CCCCNC(=O)C(C)n1cc(C)c(-c2ccccc2)n1` (stereo unspecified) returned a melting point of 82 to 84 °C.
Then `COc1cccc(-c2c[nH]c3ncnc(N)c23)c1`, with 188 to 190 °C.
